Laboratory results from US9340590B2 (priority 2011, dated 2016).
pIC50: −log10 of the molar value. Like-named read-outs stand apart in the source and are kept apart here. Positions of bridges follow the written chain, without caps; N, C: chain ends. Residues, ends and D or L forms follow the SMILES beside them.

What was measured:
Test in all cases: cell-based
[1] = target: hNav1.7 (Homo sapiens, UniProt Q15858); assay type: cell-based
[2] = target: hNav1.5 (Homo sapiens, UniProt Q14524)
[3] = target: hNav1.3 (Homo sapiens, UniProt Q9NY46); settings: IonWorks Quattro, read-out: IWQ Use Nav1.3
[4] = IonWorks Quattro, clamped to −110 mV, depolarized to −10 mV, 5 min after compound, n=2, read-out: IWQ Use Nav1.7
[5] = IonWorks Quattro, clamped to −110 mV, depolarized to −10 mV, 5 min after compound, n=2, read-out: IWQ Use Nav1.5
[6] = clamped to −110 mV, depolarized to −10 mV, 5 min after compound, n=2

Chain of hNav1.3 (Q9NY46 whole entry, looked up): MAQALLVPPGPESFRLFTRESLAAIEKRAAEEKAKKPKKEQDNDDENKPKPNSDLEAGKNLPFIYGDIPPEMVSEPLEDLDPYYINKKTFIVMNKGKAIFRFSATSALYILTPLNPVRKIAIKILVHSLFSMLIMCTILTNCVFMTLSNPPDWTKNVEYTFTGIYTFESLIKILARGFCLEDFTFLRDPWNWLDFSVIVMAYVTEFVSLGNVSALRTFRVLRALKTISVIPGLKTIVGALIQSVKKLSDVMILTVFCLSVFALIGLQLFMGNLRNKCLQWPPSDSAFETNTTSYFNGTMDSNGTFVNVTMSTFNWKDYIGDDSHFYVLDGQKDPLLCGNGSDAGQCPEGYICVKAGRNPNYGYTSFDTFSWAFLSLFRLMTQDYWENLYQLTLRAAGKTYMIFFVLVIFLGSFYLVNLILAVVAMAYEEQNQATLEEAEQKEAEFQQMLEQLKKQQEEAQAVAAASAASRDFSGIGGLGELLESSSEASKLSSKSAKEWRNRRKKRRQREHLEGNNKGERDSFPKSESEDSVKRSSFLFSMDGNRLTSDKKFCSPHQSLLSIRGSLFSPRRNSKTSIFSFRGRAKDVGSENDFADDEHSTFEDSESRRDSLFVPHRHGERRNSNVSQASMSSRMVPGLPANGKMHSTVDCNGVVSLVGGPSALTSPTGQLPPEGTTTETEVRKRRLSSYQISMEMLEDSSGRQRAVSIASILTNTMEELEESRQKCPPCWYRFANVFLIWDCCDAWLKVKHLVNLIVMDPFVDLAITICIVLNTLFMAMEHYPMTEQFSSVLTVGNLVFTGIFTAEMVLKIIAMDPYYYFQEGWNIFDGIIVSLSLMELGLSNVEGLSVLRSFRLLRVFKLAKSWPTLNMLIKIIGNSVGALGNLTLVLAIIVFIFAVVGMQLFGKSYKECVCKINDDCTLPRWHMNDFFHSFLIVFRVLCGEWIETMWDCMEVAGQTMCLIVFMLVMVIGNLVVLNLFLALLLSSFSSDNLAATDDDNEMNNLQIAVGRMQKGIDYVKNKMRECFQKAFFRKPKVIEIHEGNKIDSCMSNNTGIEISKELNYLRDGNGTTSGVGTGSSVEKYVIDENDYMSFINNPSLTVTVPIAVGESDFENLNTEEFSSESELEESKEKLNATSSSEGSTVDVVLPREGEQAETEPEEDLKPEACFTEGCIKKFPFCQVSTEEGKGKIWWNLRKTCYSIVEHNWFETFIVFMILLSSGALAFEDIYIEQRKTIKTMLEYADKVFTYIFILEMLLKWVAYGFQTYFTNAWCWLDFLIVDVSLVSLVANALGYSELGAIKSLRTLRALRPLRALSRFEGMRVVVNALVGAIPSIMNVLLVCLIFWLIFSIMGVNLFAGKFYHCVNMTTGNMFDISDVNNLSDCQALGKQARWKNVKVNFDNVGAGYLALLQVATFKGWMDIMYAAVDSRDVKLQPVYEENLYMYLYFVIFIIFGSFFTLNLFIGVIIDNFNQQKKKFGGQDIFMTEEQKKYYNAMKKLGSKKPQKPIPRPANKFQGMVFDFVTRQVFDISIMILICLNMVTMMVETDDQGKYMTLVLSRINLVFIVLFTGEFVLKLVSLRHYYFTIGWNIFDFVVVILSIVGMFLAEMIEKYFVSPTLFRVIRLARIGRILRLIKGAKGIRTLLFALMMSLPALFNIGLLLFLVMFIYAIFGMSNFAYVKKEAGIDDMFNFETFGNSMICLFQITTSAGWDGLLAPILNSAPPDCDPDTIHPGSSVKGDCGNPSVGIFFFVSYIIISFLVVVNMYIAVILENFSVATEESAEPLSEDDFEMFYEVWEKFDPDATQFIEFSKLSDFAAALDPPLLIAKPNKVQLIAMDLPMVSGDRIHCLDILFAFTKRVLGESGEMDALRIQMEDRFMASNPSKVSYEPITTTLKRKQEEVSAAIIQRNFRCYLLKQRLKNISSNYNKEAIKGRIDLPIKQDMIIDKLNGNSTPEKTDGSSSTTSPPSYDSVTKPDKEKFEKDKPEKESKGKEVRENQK
Chain of hNav1.7 (Q15858 whole entry, looked up): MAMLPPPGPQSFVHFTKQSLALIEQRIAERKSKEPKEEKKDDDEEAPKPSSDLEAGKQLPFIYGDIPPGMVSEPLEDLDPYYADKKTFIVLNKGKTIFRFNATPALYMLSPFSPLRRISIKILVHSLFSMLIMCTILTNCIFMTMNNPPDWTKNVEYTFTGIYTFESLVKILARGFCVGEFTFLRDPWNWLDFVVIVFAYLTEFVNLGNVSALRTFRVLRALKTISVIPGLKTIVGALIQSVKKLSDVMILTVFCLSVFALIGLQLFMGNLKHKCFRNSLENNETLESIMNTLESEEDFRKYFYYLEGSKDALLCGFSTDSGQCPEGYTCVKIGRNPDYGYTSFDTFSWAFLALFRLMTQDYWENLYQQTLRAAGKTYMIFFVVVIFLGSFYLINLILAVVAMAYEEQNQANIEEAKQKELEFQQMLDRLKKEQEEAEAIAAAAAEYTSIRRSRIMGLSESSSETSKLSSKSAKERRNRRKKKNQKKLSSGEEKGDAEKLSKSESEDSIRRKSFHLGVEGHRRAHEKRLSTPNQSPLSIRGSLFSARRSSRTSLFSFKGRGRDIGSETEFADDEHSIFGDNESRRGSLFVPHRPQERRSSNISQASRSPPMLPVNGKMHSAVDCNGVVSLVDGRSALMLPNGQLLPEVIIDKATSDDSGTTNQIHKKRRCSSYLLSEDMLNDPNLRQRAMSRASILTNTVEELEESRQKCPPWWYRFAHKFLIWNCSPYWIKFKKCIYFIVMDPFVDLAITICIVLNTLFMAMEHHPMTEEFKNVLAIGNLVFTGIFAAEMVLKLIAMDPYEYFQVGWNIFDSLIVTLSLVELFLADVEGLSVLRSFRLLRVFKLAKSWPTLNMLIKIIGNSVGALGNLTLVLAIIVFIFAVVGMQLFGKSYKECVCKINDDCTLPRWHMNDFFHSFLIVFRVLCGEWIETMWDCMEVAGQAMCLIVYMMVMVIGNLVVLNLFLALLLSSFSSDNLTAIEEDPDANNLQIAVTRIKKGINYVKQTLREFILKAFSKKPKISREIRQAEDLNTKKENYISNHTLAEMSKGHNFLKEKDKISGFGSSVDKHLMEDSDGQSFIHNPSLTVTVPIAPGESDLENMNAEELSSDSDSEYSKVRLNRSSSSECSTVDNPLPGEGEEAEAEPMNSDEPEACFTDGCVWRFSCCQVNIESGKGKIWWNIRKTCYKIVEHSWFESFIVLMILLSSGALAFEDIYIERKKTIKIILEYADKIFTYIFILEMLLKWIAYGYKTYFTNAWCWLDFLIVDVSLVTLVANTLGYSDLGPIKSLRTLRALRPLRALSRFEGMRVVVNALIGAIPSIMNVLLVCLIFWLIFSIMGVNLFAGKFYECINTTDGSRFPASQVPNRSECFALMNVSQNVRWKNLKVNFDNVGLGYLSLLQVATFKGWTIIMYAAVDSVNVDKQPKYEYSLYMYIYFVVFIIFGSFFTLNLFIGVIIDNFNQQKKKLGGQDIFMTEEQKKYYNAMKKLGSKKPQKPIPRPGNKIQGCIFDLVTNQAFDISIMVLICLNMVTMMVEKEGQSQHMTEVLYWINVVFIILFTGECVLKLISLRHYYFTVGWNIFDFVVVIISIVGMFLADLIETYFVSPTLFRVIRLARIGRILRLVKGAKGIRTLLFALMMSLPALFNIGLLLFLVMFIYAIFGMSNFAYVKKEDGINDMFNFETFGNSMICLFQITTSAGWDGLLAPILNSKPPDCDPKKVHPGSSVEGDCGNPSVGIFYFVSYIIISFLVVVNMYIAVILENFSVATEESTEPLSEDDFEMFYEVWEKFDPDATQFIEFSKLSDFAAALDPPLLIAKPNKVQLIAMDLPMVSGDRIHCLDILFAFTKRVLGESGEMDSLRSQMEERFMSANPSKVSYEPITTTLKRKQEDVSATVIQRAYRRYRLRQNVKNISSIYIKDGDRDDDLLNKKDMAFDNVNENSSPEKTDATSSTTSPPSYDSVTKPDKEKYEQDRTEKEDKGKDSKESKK

Compound | pIC50 ([1]; IonWorks Quattro, use-dependent block, hNav1.7, read-out: IWQ Use Nav1.7) | pIC50 ([2]; IonWorks Quattro, use-dependent block, hNav1.5, read-out: IWQ Use Nav1.5) | pIC50 ([3]; use-dependent block, hNav1.3) | pIC50 [1, 4] | pIC50 [2, 5] | pIC50 [3, 6] | pIC50 [1] | pIC50 ([2]; IWQ Use Nav1.5)
CC[C@H](C)[C@@H]1NC(=O)[C@@H]2CSSC[C@@H]3NC(=O)[C@H](C(C)C)NC(=O)[C@H](CC(C)C)NC(=O)[C@H](CC(N)=O)NC(=O)[C@@H]4CCCN4C(=O)[C@H](CCCNC(=N)N)NC(=O)[C@H](CSSC[C@H](NC(=O)[C@@H](N)CC(=O)O)C(=O)N[C@@H](CC(C)C)C(=O)NCC(=O)N[C@@H](C)C(=O)N[C@@H](CC[S+](C)[O-])C(=O)N[C@@H](CCCNC(=N)N)C(=O)N[C@@H](CCCCN)C(=O)N2)NC(=O)[C@H](CSSC[C@@H](C(=O)N[C@@H](CCCCN)C(=O)N[C@@H](Cc2ccc(O)cc2)C(=O)N[C@H](C(=O)N[C@@H](Cc2ccccc2)C(N)=O)C(C)C)NC(=O)[C@H](Cc2c[nH]c4ccccc24)NC(=O)[C@H](CCCCN)NC(=O)[C@H](Cc2c[nH]cn2)NC(=O)[C@H]([C@@H](C)O)NC(=O)[C@H](CCCNC(=N)N)NC(=O)[C@H](CO)NC3=O)NC(=O)[C@H](CCCCN)NC(=O)[C@H](CC(=O)O)NC(=O)[C@H](CC(N)=O)NC(=O)[C@H](CC(=O)O)NC(=O)[C@@H]2CCCN2C1=O (single isomer, unassigned) [compound 792] | < 5.30 | 4.30 | < 5.30 |  |  |  |  | 
CC[C@H](C)[C@@H]1NC(=O)[C@@H]2CSSC[C@@H]3NC(=O)[C@H](C(C)C)NC(=O)[C@H](CC(C)C)NC(=O)[C@H](CC(N)=O)NC(=O)[C@@H]4CCCN4C(=O)[C@H](CCCNC(=N)N)NC(=O)[C@H](CSSC[C@H](NC(=O)[C@@H](N)CC(=O)O)C(=O)N[C@@H](CC(C)C)C(=O)NCC(=O)N[C@@H](Cc4ccccc4)C(=O)N[C@@H](CC[Se]C)C(=O)N[C@@H](CCCNC(=N)N)C(=O)N[C@@H](CCCCN)C(=O)N2)NC(=O)[C@H](CSSC[C@@H](C(=O)N[C@@H](CCCCN)C(=O)N[C@@H](Cc2ccc(O)cc2)C(=O)N[C@H](C(=O)N[C@@H](Cc2ccccc2)C(N)=O)C(C)C)NC(=O)[C@H](Cc2c[nH]c4ccccc24)NC(=O)[C@H](CCCCN)NC(=O)[C@H](Cc2c[nH]cn2)NC(=O)[C@H]([C@@H](C)O)NC(=O)[C@H](CCCNC(=N)N)NC(=O)[C@H](CO)NC3=O)NC(=O)[C@H](CCCCN)NC(=O)[C@H](CC(=O)O)NC(=O)[C@H](CC(N)=O)NC(=O)[C@H](CC(=O)O)NC(=O)[C@@H]2CCCN2C1=O [SEQ ID NO: 3] |  |  |  | 7.00 | 4.86 | 7.00 |  | 
CC[C@H](C)[C@@H]1NC(=O)[C@@H]2CSSC[C@@H]3NC(=O)[C@H](C(C)C)NC(=O)[C@H](CC(C)C)NC(=O)[C@H](CC(N)=O)NC(=O)[C@@H]4CCCN4C(=O)[C@H](CCCNC(=N)N)NC(=O)[C@H](CSSC[C@H](NC(=O)[C@H](CC(=O)O)NC(=O)[C@@H](N)CCC(=O)O)C(=O)N[C@@H](CC(C)C)C(=O)NCC(=O)N[C@@H](Cc4ccccc4)C(=O)N[C@@H](CCSC)C(=O)N[C@@H](CCCNC(=N)N)C(=O)N[C@@H](CCCCN)C(=O)N2)NC(=O)[C@H](CSSC[C@@H](C(=O)N[C@@H](CCCCN)C(=O)N[C@@H](Cc2ccc(O)cc2)C(=O)N[C@H](C(=O)N[C@@H](Cc2ccccc2)C(N)=O)C(C)C)NC(=O)[C@H](Cc2c[nH]c4ccccc24)NC(=O)[C@H](CCCCN)NC(=O)[C@H](Cc2cnc[nH]2)NC(=O)[C@H]([C@@H](C)O)NC(=O)[C@H](CCCNC(=N)N)NC(=O)[C@H](CO)NC3=O)NC(=O)[C@H](CCCCN)NC(=O)[C@H](CC(=O)O)NC(=O)[C@H](CC(N)=O)NC(=O)[C@H](CC(=O)O)NC(=O)[C@@H]2CCCN2C1=O [SEQ ID NO: 17] |  |  |  |  |  | 6.72 | 6.59 | 4.89
CC[C@H](C)[C@@H]1NC(=O)[C@@H]2CSSC[C@@H]3NC(=O)[C@H](C(C)C)NC(=O)[C@H](CC(C)C)NC(=O)[C@H](CC(N)=O)NC(=O)[C@@H]4CCCN4C(=O)[C@H](CCCNC(=N)N)NC(=O)[C@H](CSSC[C@H](NC(=O)[C@@H](N)CC(=O)O)C(=O)N[C@@H](CC(C)C)C(=O)NCC(=O)N[C@@H](Cc4ccccc4)C(=O)N[C@@H](C)C(=O)N[C@@H](CCCNC(=N)N)C(=O)N[C@@H](CCCCN)C(=O)N2)NC(=O)[C@H](CSSC[C@@H](C(=O)N[C@@H](CCCCN)C(=O)N[C@@H](Cc2ccc(O)cc2)C(=O)N[C@H](C(=O)N[C@@H](Cc2ccccc2)C(N)=O)C(C)C)NC(=O)[C@H](Cc2c[nH]c4ccccc24)NC(=O)[C@H](CCCCN)NC(=O)[C@H](Cc2cnc[nH]2)NC(=O)[C@H]([C@@H](C)O)NC(=O)[C@H](CCCNC(=N)N)NC(=O)[C@H](CO)NC3=O)NC(=O)[C@H](CCCCN)NC(=O)[C@H](CC(=O)O)NC(=O)[C@H](CC(N)=O)NC(=O)[C@H](CC(=O)O)NC(=O)[C@@H]2CCCN2C1=O [SEQ ID NO: 23] (H-DCLGFARKCIPDNDKCCRPNLVCSRTHKWCKYVF-NH2; disulfide 2-17, 9-23, 16-30) |  |  |  | 6.29 | 4.76 | 6.68 |  | 
CC[C@H](C)[C@@H]1NC(=O)[C@@H]2CSSC[C@@H]3NC(=O)[C@H](C(C)C)NC(=O)[C@H](CC(C)C)NC(=O)[C@H](CC(N)=O)NC(=O)[C@@H]4CCCN4C(=O)[C@H](CCCNC(=N)N)NC(=O)[C@H](CSSC[C@H](NC(=O)[C@H](CC(=O)O)NC(=O)[C@@H](N)CCCCN)C(=O)N[C@@H](CC(C)C)C(=O)NCC(=O)N[C@@H](Cc4ccccc4)C(=O)N[C@@H](CCSC)C(=O)N[C@@H](CCCNC(=N)N)C(=O)N[C@@H](CCCCN)C(=O)N2)NC(=O)[C@H](CSSC[C@@H](C(=O)N[C@@H](CCCCN)C(=O)N[C@@H](Cc2ccc(O)cc2)C(=O)N[C@H](C(=O)N[C@@H](Cc2ccccc2)C(N)=O)C(C)C)NC(=O)[C@H](Cc2c[nH]c4ccccc24)NC(=O)[C@H](CCCCN)NC(=O)[C@H](Cc2cnc[nH]2)NC(=O)[C@H]([C@@H](C)O)NC(=O)[C@H](CCCNC(=N)N)NC(=O)[C@H](CO)NC3=O)NC(=O)[C@H](CCCCN)NC(=O)[C@H](CC(=O)O)NC(=O)[C@H](CC(N)=O)NC(=O)[C@H](CC(=O)O)NC(=O)[C@@H]2CCCN2C1=O [SEQ ID NO: 36] |  |  |  | 6.96 | 5.08 | 7.00 |  | 
CC[C@H](C)[C@@H]1NC(=O)[C@@H]2CSSC[C@@H]3NC(=O)[C@H](C(C)C)NC(=O)[C@H](CC(C)C)NC(=O)[C@H](CC(N)=O)NC(=O)[C@@H]4CCCN4C(=O)[C@H](CCCNC(=N)N)NC(=O)[C@H](CSSC[C@H](NC(=O)[C@@H](N)CC(=O)O)C(=O)N[C@@H](CCCCN)C(=O)NCC(=O)N[C@@H](Cc4ccccc4)C(=O)N[C@@H](CCSC)C(=O)N[C@@H](CCCNC(=N)N)C(=O)N[C@@H](CCCCN)C(=O)N2)NC(=O)[C@H](CSSC[C@@H](C(=O)N[C@@H](CCCCN)C(=O)N[C@@H](Cc2ccc(O)cc2)C(=O)N[C@H](C(=O)N[C@@H](Cc2ccccc2)C(N)=O)C(C)C)NC(=O)[C@H](Cc2c[nH]c4ccccc24)NC(=O)[C@H](CCCCN)NC(=O)[C@H](Cc2cnc[nH]2)NC(=O)[C@H]([C@@H](C)O)NC(=O)[C@H](CCCNC(=N)N)NC(=O)[C@H](CO)NC3=O)NC(=O)[C@H](CCCCN)NC(=O)[C@H](CC(=O)O)NC(=O)[C@H](CC(N)=O)NC(=O)[C@H](CC(=O)O)NC(=O)[C@@H]2CCCN2C1=O [SEQ ID NO: 38] (H-DCKGFMRKCIPDNDKCCRPNLVCSRTHKWCKYVF-NH2; disulfide 2-17, 9-23, 16-30) |  |  |  | 7.10 | 5.16 | 7.22 |  | 
CC[C@H](C)[C@@H]1NC(=O)[C@@H]2CSSC[C@@H]3NC(=O)[C@H](C(C)C)NC(=O)[C@H](CC(C)C)NC(=O)[C@H](CC(N)=O)NC(=O)[C@@H]4CCCN4C(=O)[C@H](CCCNC(=N)N)NC(=O)[C@H](CSSC[C@H](NC(=O)[C@H](CC(=O)O)NC(=O)[C@@H](N)CCCNC(=N)N)C(=O)N[C@@H](CC(C)C)C(=O)NCC(=O)N[C@@H](Cc4ccccc4)C(=O)N[C@@H](CCSC)C(=O)N[C@@H](CCCNC(=N)N)C(=O)N[C@@H](CCCCN)C(=O)N2)NC(=O)[C@H](CSSC[C@@H](C(=O)N[C@@H](CCCCN)C(=O)N[C@@H](Cc2ccc(O)cc2)C(=O)N[C@H](C(=O)N[C@@H](Cc2ccccc2)C(N)=O)C(C)C)NC(=O)[C@H](Cc2c[nH]c4ccccc24)NC(=O)[C@H](CCCCN)NC(=O)[C@H](Cc2c[nH]cn2)NC(=O)[C@H]([C@@H](C)O)NC(=O)[C@H](CCCNC(=N)N)NC(=O)[C@H](CO)NC3=O)NC(=O)[C@H](CCCCN)NC(=O)[C@H](CC(=O)O)NC(=O)[C@H](CC(N)=O)NC(=O)[C@H](CC(=O)O)NC(=O)[C@@H]2CCCN2C1=O [SEQ ID NO: 61] |  |  |  | 6.77 | 4.82 | 7.10 |  | 
CC[C@H](C)[C@@H]1NC(=O)[C@@H]2CSSC[C@@H]3NC(=O)[C@H](C(C)C)NC(=O)[C@H](CC(C)C)NC(=O)[C@H](CC(N)=O)NC(=O)[C@@H]4CCCN4C(=O)[C@H](CCCNC(=N)N)NC(=O)[C@H](CSSC[C@H](NC(=O)[C@@H](N)CC(=O)O)C(=O)N[C@@H](CC(C)C)C(=O)NCC(=O)N[C@@H](Cc4ccccc4)C(=O)N[C@@H](CCCNC(=N)N)C(=O)N[C@@H](CCCNC(=N)N)C(=O)N[C@@H](CCCCN)C(=O)N2)NC(=O)[C@H](CSSC[C@@H](C(=O)N[C@@H](CCCCN)C(=O)N[C@@H](Cc2ccc(O)cc2)C(=O)N[C@H](C(=O)N[C@@H](Cc2ccccc2)C(N)=O)C(C)C)NC(=O)[C@H](Cc2c[nH]c4ccccc24)NC(=O)[C@H](CCCCN)NC(=O)[C@H](Cc2cnc[nH]2)NC(=O)[C@H]([C@@H](C)O)NC(=O)[C@H](CCCNC(=N)N)NC(=O)[C@H](CO)NC3=O)NC(=O)[C@H](CCCCN)NC(=O)[C@H](CC(=O)O)NC(=O)[C@H](CC(N)=O)NC(=O)[C@H](CC(=O)O)NC(=O)[C@@H]2CCCN2C1=O [SEQ ID NO: 64] (H-DCLGFRRKCIPDNDKCCRPNLVCSRTHKWCKYVF-NH2; disulfide 2-17, 9-23, 16-30) |  |  |  | 5.16 |  | 5.23 |  | 4.75
